Measurements: patent publication US20090137390A1, “Materials and methods for enhancing nitrogen fixation in plants” (priority 2004, published 2009)
“Also recorded” adds a separate entry of the source.

Columns and labels:
[1] = system: Medicago sativa roots and hypocotyls; experiment: Endophytic colonization of alfalfa seedlings (CFU recovered from interior of roots and hypocotyls); type: in vivo
Excerpt: (§1) Bacterial strains and inoculum preparation. BA3104 was constructed by sequential P22 transduction into 14028 using a P22HTint lysate grown on the SL3201 fliC::Tn10 fliB::MudJ strain kindly provided by Dr. Allison O'Brien (Schmitt et al., 2001). pHC112 was constructed by amplifying the spaS gene of 14028 (nucleotides 28 to 1327 of GenBank accession number AE008832) using Taq DNA polymerase. The spaS fragment was cloned into pCR-2.1-TOPO (Invitrogen), removed using EcoRI, and cloned into the EcoRI site of pWSK29 (Wang and Kushner 1991). pHC113 was constructed in the same way except that the sipB gene was amplified (nucleotides 18133 to 20138 of GenBank accession number AE008831). Bacterial strains were cultured and inoculum prepared as described previously (Dong et al., 2003a; Dong et al., 2003b) with the exception of the experiments designed to estimate the number of infection events. For these experiments the inoculum strains were composed of a mixture of either 14028 or Kp342 with and without a constitutively expressed GFP gene.
(§2) Seed surface sterilization, germination, inoculation, plant culture and harvest. The manipulation of plants, from seed surface sterilization to plant harvest, were carried out by methods developed previously (Dong et al., 2003a; Dong et al., 2003b).
(§3) Determination of microbial population within surface sterilized plant tissue. With the exception of the M. truncatula sickle experiment, where the whole plant tissue was used to determine microbial populations, only the root and hypocotyl were examined for bacterial colonization. The procedures used for surface sterilization, determination of endophytic microbial populations and statistical analysis were done as described previously (Dong et al., 2003a; Dong et al., 2003b).
(§4) Assurance of endophytic colonization results. To ensure the endophytic colonization numbers presented reflect only the number of cells within the interior of plant tissue, previously developed methods were followed (Dong et al., 2003a; Dong et al., 2003b).
Induction of ethylene response in seedlings. […]

[2] = system: Medicago truncatula roots and hypocotyls; experiment: Endophytic colonization of Medicago truncatula seedlings (CFU recovered from interior); type: in vivo
Excerpt: as §1, §2, §3, §4
Induction of ethylene response in seedlings. To induce ethylene responses, seedlings were cultured in growth medium as described previously (Dong et al., 2003a) supplemented with 5 μM 1-aminocyclopropane-1-carboxylic acid (ACC). ACC was dissolved in water and filter sterilized prior to its addition to autoclaved plant growth media. In most experiments, seedlings were exposed to media containing ACC for 12 hours prior to inoculation.
Preparation and use of 1-methylcyclopropene (1-MCP). The gaseous ethylene action inhibitor, 1-MCP, was prepared and stored as described by Hall et al. (2000). 1-MCP was generated from ETHYLBLOC, which was provided by A. B. Bleecker (University of Wisconsin—Madison). The concentration of 1-MCP in ETHYLBLOC is of 0.14%. A stock of 1-MCP of 100 ppm was created in a serum bottle of 121.5 ml in volume. This was accomplished by adding 19.44 mg of ETHYLBLOC and 0.5 ml of hot H2O to the serum bottle and set to rest for 15 minutes. The stock was used to dispense 0.3 ml of headspace gas to 30 ml stopped test tubes where the plants were cultured, resulting in a final concentration of 1 ppm per tube. The plant cultures were placed under conditions as described previously (Dong et al., 2003a; Dong et al., 2003b) with the exception of a rubber stopper used to conceal 1-MCP. The stoppers were removed daily, flushed with air, stopped again and finally freshly prepared 1-MCP was added to the desired final concentration.

Triticum aestivum roots = experiment: Endophytic colonization of wheat seedlings (CFU recovered from interior of roots and hypocotyls); type: in vivo; settings: varying amounts of ACC
Excerpt: as §1, §2
Determination of microbial population within surface sterilized plant tissue. […]

PR1::GUS = experiment: GUS histochemical staining and GUS fluorogenic assay in PR1::GUS plants; type: in vivo, Arabidopsis thaliana; settings: histochemical staining and fluorogenic assays
Description: GUS histochemical staining and GUS fluorogenic assay. Roots of transgenic Arabidopsis thaliana Col-0 harboring a pathogenesis-related 1 (PR1) gene promoter fused to the bacterial uidA (β-glucuronidase) reporter gene (PR1::GUS) were inoculated with 10^7 CFU S. enterica 14028, the 14028 sipB mutant, and the complemented sipB mutant,. Exogenous application of salicylic acid (5 mM) and infiltration of leaves with 10^7 CFU of an avirulent strain of P. syringae DC3000 carrying the avrRpt2 on plasmid PV288 were used as positive controls (Kunkel et al., 1993; Ton et al., 2002). The histochemical assay was performed as described by Sundaresan et al. (1995) with slight modifications (Sundaresan et al., 1995). Plants were immersed in staining buffer (50 mM sodium phosphate pH7, 10 mM EDTA, 0.1% Triton X-100, 100 μg/ml chloramphenicol, 5 mM potassium ferricyanide and 0.5 mg/ml 5-bromo-4-chloro-3-indolyl-β-D-glucuronide (X-Glc). Plants were then vacuum infiltrated, incubated overnight at 37° C., and destained with 70% ethanol.
To conduct the quantitative GUS fluorogenic assay, whole plants were flash-frozen in liquid N2 and crushed. The fluorogenic assay and protein extraction were done as described by (Jefferson et al, 1987). Protein concentration of the samples was determined using a BCA protein assay kit (PIERCE, Rockford, Ill.).

`CC1=CC1` [1-MCP, 1-methylcyclopropene] was tested, and the “Effect on the ACC-induced reduction in endophytic colonization of alfalfa” value ([1]; 1 ppm 1-MCP, 5 μM ACC) was “reversed the reduction in endophytic colonization of alfalfa observed with ACC” and the “Endophytic colonization upon treatment” value ([2]; 1 ppm 1-MCP, regardless of presence or absence of exogenous ACC, Kp342) was “significantly higher endophytic colonization”.

In the case of `NC1(C(=O)O)CC1` [ACC, 1-aminocyclopropane-1-carboxylic acid], the “Reduction of endophytic colonization” value ([1]; colonization by S. typhimurium 14028, wild-type M. sativa, ACC in growth media (5 μM)) was “four”, the “Decrease of endophytic colonization” value ([1]; wild-type strain (14028), FIG. 6) was “over two orders of magnitude” and the “Number of Kp342 cells within roots over time with ACC treatment” value ([2]; 5 μM ACC at inoculation, 10^2 cells of Kp342 per plant, days 0-6) was “statistically different from the controls on days 4, 5, and 6; also recorded: does not change significantly with ACC treatment until four days after inoculation”. For the same compound, the “Decline in number of cells within wheat roots” value (Triticum aestivum roots; 14028 cells) was 1.2 orders of magnitude and the “Decline in number of cells within wheat roots” value (Triticum aestivum roots; Kp342 cells) was 1.85 orders of magnitude.

With `C=C` [ethylene] the “Endophytic colonization in plants exposed to C2H4 or ACC for the same time period” value ([2]; 5 μM, Kp342) was “No difference in endophytic colonization”, the “Time of application needed for maximal inhibition of endophytic colonization” value ([2]; C2H4 5 μM applied from one day prior to up to 6 days after inoculation) was “prior to, or at the time of inoculation” and the “Time after exposure at which effects on endophytic colonization become significant” value ([2]; Kp342) was 96 h.

In the case of `O=C(O)c1ccccc1O` [salicylic acid], the “PR1::GUS induction / expression” value (PR1::GUS) was “strongly induced”.
